Assay results taken from PubChem BioAssay (NCI).
Where “and” joins values, the source holds several entries; their conditions need not be identical. Identical values can stand only once.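 A five-concentration, 48-hour dose response in 96-well plates underlies each endpoint, interpolated linearly between surrounding concentrations. The concentration for 50% growth inhibition is given as GI50. TGI: concentration producing complete growth inhibition.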

Tested on: COLO 205 colon
Test: growth of human tumour cells (NCI), 48 h

SMILES | GI50 | TGI
COc1cc2c3c(n(CCCCOC(=O)C(Cl)(Cl)Cl)c(=O)c2cc1OC)-c1cc2c(cc1C3=O)OCO2 | > 100 µM | > 100 µM
CCOC(=O)c1c(C)nc2c(c1N)/C(=C/c1ccc(OC)cc1)C(=O)N2Cc1ccc(F)cc1 | 0.146 µM | 0.333 µM
C/C(=N\Nc1ccc(Cl)cn1)c1ccccn1 | 0.0227 µM | 36.7 µM
COc1cc(NS(=O)(=O)c2ccc(-c3cnc(C4CC4)o3)cc2)ccc1F | 0.506 µM | 9.57 µM
CC(C)CCCC(=O)CCCCCCC(=O)CCN(O)C(=O)C(N)CO (configuration not stated) |  | 53.5 µM
Cc1ccc(NC(=O)NCCCOc2ccc(N3C(N)=NC(N)=NC3(C)C)cc2Cl)cc1S(=O)(=O)F | 13.6 µM | 95.7 µM
CC[CH2][Sn]([Cl])([Cl])[CH2]CC.Oc1ccccc1C=NCCN=Cc1ccccc1O | 2.97 µM | 10.1 µM
COc1ccccc1Cn1cc2c(c1-c1ccccc1)CCc1cnoc1-2 | 2.56 µM | 7.62 µM
COc1cc2c(c(OC)c1OC)C(=O)[C@@H]1c3ccc([N+](=O)[O-])cc3C(=O)N(CCCBr)[C@H]21 | 9.86 µM | > 100 µM
Nc1ncn(C2CC(O)C(CO)O2)c(=O)n1 (configuration not stated) |  | > 298 µM
C/C=C(\C)CC/C=C/CO[Si](C)(C)C(C)(C)C |  | > 100 µM
COc1cc2c3c(n(C)c(=O)c2cc1OC)-c1cc2c(cc1/C3=C\CNCCCN)OCO2 | 0.232 µM | 8.71 µM
O=C(/C=C\n1cnc(-c2cc(C(F)(F)F)cc(C(F)(F)F)c2)n1)NNc1cnccn1 | 0.0515 µM | 5.28 µM
NCCCn1c2c(c3ccc([N+](=O)[O-])cc3c1=O)C(=O)c1cc(Br)ccc1-2 | 0.0946 µM and 0.79 µM | 2.34 µM
CN1C(=O)c2ccccc2NC(=O)C12O[C@@H]2c1cccc(O)c1 (some centres not stated) |  | > 100 µM

Tested on: UACC-62 melanoma
Test: growth of human tumour cells (NCI), 48 h

SMILES | TGI | GI50
Cn1cnc([N+](=O)[O-])c1[Se]c1nc(N)nc2c1ncn2C1OC(CO)C(O)C1O (configuration not stated) | > 100 µM | 
C=C(C)C1CCC2(C(=O)O)CCC3(C)C(CCC4C5(C)CCC(OC(=O)NCc6ccccc6)C(C)(C)C5CCC43C)C12 (configuration not stated) | > 100 µM | 1.9 µM
Clc1ccc(-c2c(C3=NCCCN3)nnn2-c2ccc(Cl)cc2)cc1 | 36 µM | 
C=C[C@H]1C[C@@H]2C[C@@H]3[C@H]4C/C=C\C(=O)NCCCC5NC(=O)C(=C(O)/C=C/[C@@H]4CC(=O)[C@H]3[C@@H]2[C@H]1C)C5=O (some centres not stated) | 2.88 µM | 1.45 µM
Cc1ccc(C(=O)Nc2ccc(CN3CCN(C)CC3)c(C(F)(F)F)c2)cc1C#Cc1cnc(N)c2ccccc12 | 1.25 µM | 0.565 µM
C=C1CC[C@@H]2[C@](C)(COC(C)=O)[C@H](OC(C)=O)CC[C@@]2(C)[C@@H]1CC(Nc1ccc(S(=O)(=O)Nc2ncccn2)cc1)C1=CCOC1=O (some centres not stated) | 2.56 µM | 1.11 µM
Cn1c2ccccc2c2c3[nH]c(=O)[nH]c(=O)c3c3c4ccccc4n(C)c3c21 | > 100 µM | 6.64 µM
O=C1/C(=C/c2ccc(O)cc2)CSc2ccc(Cl)cc21 | 26.2 µM | 12.2 µM
Fc1ccc(-c2nn3ncccc3c2-c2ccnc(Nc3ccc4c(c3)OCCO4)n2)cc1 | 9.12 µM | 3.97 µM
CC1(C)N=C(N)N=C(N)N1c1ccc(OCc2ccc(S(=O)(=O)F)c(Cl)c2)c(Cl)c1 | > 100 µM | 0.74 µM
CO[C@H]1C=C[C@@]23c4cc5c(cc4CO[C@]2(O)CN(C)[C@H]3C1)OCO5 | > 100 µM | 
COC(=O)c1c(C)[nH]c(/C=C2\N=C(c3ccc[nH]3)C=C2OC)c1C | 0.921 µM | 0.287 µM
COc1cc2c3c(n(CCCCOC(=O)C(Cl)(Cl)Cl)c(=O)c2cc1OC)-c1cc2c(cc1C3=O)OCO2 | > 100 µM | 22.5 µM
CCOC(=O)c1c(C)nc2c(c1N)/C(=C/c1ccc(OC)cc1)C(=O)N2Cc1ccc(F)cc1 | 0.317 µM | 0.16 µM
C/C(=N\Nc1ccc(Cl)cn1)c1ccccn1 | > 100 µM | 0.172 µM
COc1cc(NS(=O)(=O)c2ccc(-c3cnc(C4CC4)o3)cc2)ccc1F | 13.8 µM | 0.313 µM
CC(C)CCCC(=O)CCCCCCC(=O)CCN(O)C(=O)C(N)CO (configuration not stated) | 34.6 µM | 
Cc1ccc(NC(=O)NCCCOc2ccc(N3C(N)=NC(N)=NC3(C)C)cc2Cl)cc1S(=O)(=O)F | > 100 µM | 4.05 µM
CC[CH2][Sn]([Cl])([Cl])[CH2]CC.Oc1ccccc1C=NCCN=Cc1ccccc1O | 19.6 µM | 5.77 µM
COc1ccccc1Cn1cc2c(c1-c1ccccc1)CCc1cnoc1-2 | > 100 µM | 2.34 µM
COc1cc2c(c(OC)c1OC)C(=O)[C@@H]1c3ccc([N+](=O)[O-])cc3C(=O)N(CCCBr)[C@H]21 | > 100 µM | > 100 µM
Nc1ncn(C2CC(O)C(CO)O2)c(=O)n1 (configuration not stated) | 265 µM | 
C/C=C(\C)CC/C=C/CO[Si](C)(C)C(C)(C)C | > 100 µM | 
COc1cc2c3c(n(C)c(=O)c2cc1OC)-c1cc2c(cc1/C3=C\CNCCCN)OCO2 | 1.12 µM | 0.214 µM
O=C(/C=C\n1cnc(-c2cc(C(F)(F)F)cc(C(F)(F)F)c2)n1)NNc1cnccn1 | 6.83 µM | 0.232 µM
NCCCn1c2c(c3ccc([N+](=O)[O-])cc3c1=O)C(=O)c1cc(Br)ccc1-2 | 0.0488 µM and 0.0256 µM | 0.0195 µM
CN1C(=O)c2ccccc2NC(=O)C12O[C@@H]2c1cccc(O)c1 (some centres not stated) | > 100 µM | 

Tested on: IGROV1 ovarian
Test: growth of human tumour cells (NCI), 48 h

SMILES | TGI | GI50
Cn1cnc([N+](=O)[O-])c1[Se]c1nc(N)nc2c1ncn2C1OC(CO)C(O)C1O (configuration not stated) | > 100 µM | 
C=C(C)C1CCC2(C(=O)O)CCC3(C)C(CCC4C5(C)CCC(OC(=O)NCc6ccccc6)C(C)(C)C5CCC43C)C12 (configuration not stated) | > 100 µM | 
Clc1ccc(-c2c(C3=NCCCN3)nnn2-c2ccc(Cl)cc2)cc1 | > 100 µM | 
C=C[C@H]1C[C@@H]2C[C@@H]3[C@H]4C/C=C\C(=O)NCCCC5NC(=O)C(=C(O)/C=C/[C@@H]4CC(=O)[C@H]3[C@@H]2[C@H]1C)C5=O (some centres not stated) | 0.434 µM | 0.212 µM
Cc1ccc(C(=O)Nc2ccc(CN3CCN(C)CC3)c(C(F)(F)F)c2)cc1C#Cc1cnc(N)c2ccccc12 | 0.814 µM | 0.103 µM
C=C1CC[C@@H]2[C@](C)(COC(C)=O)[C@H](OC(C)=O)CC[C@@]2(C)[C@@H]1CC(Nc1ccc(S(=O)(=O)Nc2ncccn2)cc1)C1=CCOC1=O (some centres not stated) | 4.41 µM | 2.04 µM
Cn1c2ccccc2c2c3[nH]c(=O)[nH]c(=O)c3c3c4ccccc4n(C)c3c21 | 12 µM | 2.14 µM
O=C1/C(=C/c2ccc(O)cc2)CSc2ccc(Cl)cc21 | 51 µM | 7.58 µM
Fc1ccc(-c2nn3ncccc3c2-c2ccnc(Nc3ccc4c(c3)OCCO4)n2)cc1 | > 11.5 µM | 0.595 µM
CC1(C)N=C(N)N=C(N)N1c1ccc(OCc2ccc(S(=O)(=O)F)c(Cl)c2)c(Cl)c1 | > 100 µM | 0.123 µM
CO[C@H]1C=C[C@@]23c4cc5c(cc4CO[C@]2(O)CN(C)[C@H]3C1)OCO5 | > 100 µM | 
COC(=O)c1c(C)[nH]c(/C=C2\N=C(c3ccc[nH]3)C=C2OC)c1C | 1.62 µM | 0.147 µM
COc1cc2c3c(n(CCCCOC(=O)C(Cl)(Cl)Cl)c(=O)c2cc1OC)-c1cc2c(cc1C3=O)OCO2 | > 100 µM | 14.4 µM
CCOC(=O)c1c(C)nc2c(c1N)/C(=C/c1ccc(OC)cc1)C(=O)N2Cc1ccc(F)cc1 | 0.733 µM | 0.235 µM
C/C(=N\Nc1ccc(Cl)cn1)c1ccccn1 | 38.1 µM | 0.0823 µM
COc1cc(NS(=O)(=O)c2ccc(-c3cnc(C4CC4)o3)cc2)ccc1F | 24.6 µM | 0.439 µM
CC(C)CCCC(=O)CCCCCCC(=O)CCN(O)C(=O)C(N)CO (configuration not stated) | 31.9 µM | 
Cc1ccc(NC(=O)NCCCOc2ccc(N3C(N)=NC(N)=NC3(C)C)cc2Cl)cc1S(=O)(=O)F | > 100 µM | 0.525 µM
CC[CH2][Sn]([Cl])([Cl])[CH2]CC.Oc1ccccc1C=NCCN=Cc1ccccc1O | 27 µM | 5.98 µM
COc1ccccc1Cn1cc2c(c1-c1ccccc1)CCc1cnoc1-2 | > 100 µM | 3.6 µM
COc1cc2c(c(OC)c1OC)C(=O)[C@@H]1c3ccc([N+](=O)[O-])cc3C(=O)N(CCCBr)[C@H]21 | 21.3 µM | 3.41 µM
Nc1ncn(C2CC(O)C(CO)O2)c(=O)n1 (configuration not stated) | 372 µM | 
C/C=C(\C)CC/C=C/CO[Si](C)(C)C(C)(C)C | > 100 µM | 
COc1cc2c3c(n(C)c(=O)c2cc1OC)-c1cc2c(cc1/C3=C\CNCCCN)OCO2 |  | 0.284 µM
O=C(/C=C\n1cnc(-c2cc(C(F)(F)F)cc(C(F)(F)F)c2)n1)NNc1cnccn1 | 14.8 µM | 0.223 µM
NCCCn1c2c(c3ccc([N+](=O)[O-])cc3c1=O)C(=O)c1cc(Br)ccc1-2 | 0.225 µM and 0.0325 µM | 0.0754 µM
